The values that follow come from patent US7612065B2, “Inhibitors of c-JUN N-terminal kinases (JNK)” (priority 2007, dated 2009).

A value given as a limit tells only on which side of the number the result lay.

This test has as its target T1, JNK3 (Homo sapiens, UniProt P53779).
T1 construct: One such construct encodes amino acid residues Ser40-Glu402 of JNK3α1 and is preceded by Met and Gly residues; Met-Gly (initiation methionine plus glycine added for the NcoI site); made in house; host or cells: E. coli BL21 (DE3)
Put plainly: JNK inhibition assay: spectrophotometric coupled-enzyme assay with activated JNK3. Format: biochemical. The following applies: activated JNK3 10 nM, 10 μM ATP, 200 μM EGF receptor peptide, 30° C., competitive inhibition model. A digest of the protocol:
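Activated (doubly phosphorylated, MKK7(DD)-activated) human JNK3, 10 nM, preincubated 10 min at 30 °C with inhibitor in 0.1 M HEPES pH 7.5, 10 mM MgCl2, 200 μM EGF receptor peptide, PK/LDH-coupled. Started with 10 μM ATP; A340 decrease followed at 30 °C. Ki from competitive inhibition model fit.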

T1 sequence (P53779 40-402): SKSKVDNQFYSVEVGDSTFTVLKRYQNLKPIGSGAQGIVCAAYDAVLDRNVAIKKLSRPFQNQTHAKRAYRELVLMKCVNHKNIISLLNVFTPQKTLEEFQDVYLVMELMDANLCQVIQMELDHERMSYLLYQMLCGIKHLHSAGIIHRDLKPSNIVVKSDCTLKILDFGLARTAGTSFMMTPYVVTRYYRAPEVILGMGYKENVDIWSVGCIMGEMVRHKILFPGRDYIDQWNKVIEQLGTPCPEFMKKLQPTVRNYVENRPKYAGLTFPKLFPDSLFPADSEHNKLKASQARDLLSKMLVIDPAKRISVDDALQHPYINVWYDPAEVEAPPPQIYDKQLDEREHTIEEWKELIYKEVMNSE

In the case of `CC(=O)Nc1ccc2c(c1)N(Cc1cc(F)cc3c1OCOC3)C(=O)/C2=N\O` [Compound 210], the inhibition constant Ki was below 1000 nM. Turning to `COC(=O)c1cccc(CN2C(=O)/C(=N/O)c3ccc(CBr)cc32)c1` [Compound 189], the Ki is below 1000 nM. The same measure for `O=C1/C(=N\O)c2cc(Cl)ccc2N1Cc1ccccc1` [Compound 45]: at least 1000 nM; for `O=C1/C(=N\O)c2cc(F)ccc2N1Cc1ccccc1F` [Compound 59]: at least 1000 nM; for `O=C(Nc1ccc2c(c1)N(Cc1cc(F)cc3c1OCOC3)C(=O)/C2=N\O)c1cccnc1` [Compound 254]: below 1000 nM.

On to `COc1ccc(-c2nc(CN3C(=O)/C(=N\O)c4ccccc43)no2)cc1` [Compound 65], for which the Ki is at least 1000 nM. As for `COc1ccc(CN2C(=O)/C(=N\O)c3cc(C)cc(C)c32)cc1` [Compound 87], the inhibition constant (Ki) was at least 1000 nM. With `O=C1/C(=N\O)c2ccccc2N1Cc1c(Cl)cccc1Cl` [Compound 2], the Ki is below 1000 nM. The value for `Cc1ccc(CN2C(=O)/C(=N\O)c3cc(Cl)ccc32)cc1` [Compound 48] was at least 1000 nM. `C/C=C/c1cccc2c1/C(=N/O)C(=O)N2Cc1cc(F)cc2c1OCOC2` [Compound 326]: the inhibition constant Ki was below 1000 nM.

Regarding `CS(=O)(=O)c1ccc(CN2C(=O)/C(=N\O)c3cc(F)ccc32)cc1` [Compound 83], the Ki is at least 1000 nM. Turning to `O=C1/C(=N\O)c2c(-c3ccc(F)cc3)cccc2N1Cc1cc(F)cc2c1OCOC2` [Compound 204], the inhibitory constant (Ki) is at least 1000 nM.

On to `O=C1/C(=N\O)c2cc(Br)ccc2N1Cc1ccc(F)cc1` [Compound 24], for which the inhibitory constant (Ki) was at least 1000 nM. The same measure for `O=C1/C(=N\O)c2ccc(-c3ccccc3)cc2N1CC1OCCO1` [Compound 163]: at least 1000 nM.

With `O=C1/C(=N\O)c2cc(NCc3ccccc3)ccc2N1Cc1cc(F)cc2c1OCOC2` [Compound 300], the inhibition constant (Ki) is at least 1000 nM. Regarding `COc1cc(CNC(=O)c2ccc3c(c2)N(Cc2cc(F)cc4c2OCOC4)C(=O)/C3=N\O)cc(OC)c1` [Compound 230], the Ki was at least 1000 nM.

Regarding `N#Cc1ccccc1CN1C(=O)/C(=N\O)c2ccccc21` [Compound 63], the Ki is at least 1000 nM.

For `O=C(NCc1cccnc1)c1ccc2c(c1)N(Cc1cc(F)cc3c1OCOC3)C(=O)/C2=N\O` [Compound 237], the inhibitory constant (Ki) was at least 1000 nM.

Regarding `CC(C)CNc1ccc2c(c1)/C(=N/O)C(=O)N2Cc1cc(F)cc2c1OCOC2` [Compound 311], the Ki is at least 1000 nM.

Regarding `O=C1/C(=N\O)c2cc(Cl)ccc2N1Cc1cccc(F)c1` [Compound 50], the inhibition constant Ki was at least 1000 nM. `CCOC(=O)CCNC(=O)c1ccc2c(c1)N(Cc1cc(F)cc3c1OCOC3)C(=O)/C2=N\O` [Compound 296]: the Ki is at least 1000 nM. The same measure for `CCc1cccc2c1/C(=N/O)C(=O)N2Cc1cc(F)cc2c1OCOC2` [Compound 325]: at least 1000 nM; for `O=C(Nc1ccc2c(c1)N(Cc1cc(F)cc3c1OCOC3)C(=O)/C2=N\O)c1ccc(Cl)c(Cl)c1` [Compound 253]: at least 1000 nM. The value for `O=C1/C(=N\O)c2cc(-c3c(F)cccc3F)ccc2N1Cc1ccccc1` [Compound 157] was at least 1000 nM. `Cc1cc(Cl)cc2c1N(Cc1ccccn1)C(=O)/C2=N\O` [Compound 104]: the inhibition constant Ki is at least 1000 nM. For `COCC(=O)Nc1ccc2c(c1)N(Cc1cc(F)cc3c1OCOC3)C(=O)/C2=N\O` [Compound 214], the Ki was below 1000 nM. As for `O=C1/C(=N\O)c2c(C#Cc3ccccc3)cccc2N1Cc1cc(F)cc2c1OCOC2` [Compound 246], the Ki is at least 1000 nM. The value for `O=C(Nc1ccc2c(c1)N(Cc1cc(F)cc3c1OCOC3)C(=O)/C2=N\O)c1csc(C2COc3ccccc3O2)n1` (stereo not shown) [Compound 222] was at least 1000 nM. As to `CC(=O)c1ccc(-c2ccc3c(c2)N(Cc2cc(F)cc4c2OCOC4)C(=O)/C3=N\O)cc1` [Compound 330], the Ki was below 1000 nM. With `COc1ccccc1C(=O)Nc1ccc2c(c1)N(Cc1cc(F)cc3c1OCOC3)C(=O)/C2=N\O` [Compound 256], the Ki was below 1000 nM. `O=C(Nc1ccc2c(c1)N(Cc1cc(F)cc3c1OCOC3)C(=O)/C2=N\O)c1ccc(F)cc1F` [Compound 249]: the Ki is below 1000 nM. In the case of `CS(=O)(=O)Nc1ccc2c(c1)N(Cc1cc(F)cc3c1OCOC3)C(=O)/C2=N\O` [Compound 262], the Ki is below 1000 nM. The same measure for `O=C1/C(=N\O)c2cc(F)ccc2N1Cc1csc(-c2ccc(Cl)cc2)n1` [Compound 86]: at least 1000 nM; for `CCCNC(=O)c1ccc2c(c1)N(Cc1cc(F)cc3c1OCOC3)C(=O)/C2=N\O` [Compound 293]: at least 1000 nM. In the case of `O=C1c2ccccc2C(=O)N1CCCN1C(=O)/C(=N\O)c2ccc(-c3ccccc3)cc21` [Compound 161], the Ki was at least 1000 nM. In the case of `CCNC(=O)c1ccc2c(c1)N(Cc1cc(F)cc3c1OCOC3)C(=O)/C2=N\O` [Compound 291], the Ki was at least 1000 nM. The same measure for `O=C1c2ccccc2C(=O)N1CCCN1C(=O)/C(=N/O)c2ccc(CBr)cc21` [Compound 187]: at least 1000 nM; for `CC(C)CC(=O)Nc1ccc2c(c1)N(Cc1cc(F)cc3c1OCOC3)C(=O)/C2=N\O` [Compound 345]: below 1000 nM; for `O=C1/C(=N\O)c2cc(Cl)ccc2N1Cc1ccccn1` [Compound 76]: at least 1000 nM. With `O=C1/C(=N\O)c2cc(Br)ccc2N1Cc1ccccc1` [Compound 23], the Ki is at least 1000 nM. For the molecule `COc1cccc(-c2ccc3c(c2)N(Cc2cc(=O)oc4cc(OC)ccc24)C(=O)/C3=N\O)c1` [Compound 175], the inhibition constant Ki is at least 1000 nM.

Regarding `N#Cc1ccccc1CN1C(=O)/C(=N\O)c2cc(F)ccc21` [Compound 80], the inhibition constant (Ki) was at least 1000 nM. The same measure for `COc1ccc2c(c1)N(Cc1cc(F)cc3c1OCOC3)C(=O)/C2=N\O` [Compound 156]: below 1000 nM. For the molecule `O=C1/C(=N\O)c2cc(OC(F)(F)F)ccc2N1Cc1cccc([N+](=O)[O-])c1` [Compound 106], the Ki is at least 1000 nM.

On to `O=C(NCCN1CCCCC1)c1ccc2c(c1)N(Cc1cc(F)cc3c1OCOC3)C(=O)/C2=N\O` [Compound 298], for which the Ki was at least 1000 nM. The same measure for `O=C(Nc1ccc2c(c1)N(Cc1cc(F)cc3c1OCOC3)C(=O)/C2=N\O)N1CCOCC1` [Compound 269]: below 1000 nM; for `O=C(c1ccc2c(c1)/C(=N\O)C(=O)N2Cc1cc(F)cc2c1OCOC2)c1cccc(Cl)c1Cl` [Compound 355]: below 1000 nM. The same measure for `O=C1/C(=N\O)c2c(-c3ccsc3)cccc2N1Cc1cc(F)cc2c1OCOC2` [Compound 205]: at least 1000 nM.

Take `Cc1cc(C)c2c(c1)/C(=N/O)C(=O)N2Cc1cccc(Oc2ccccc2)c1` [Compound 92]: the Ki was at least 1000 nM.

Consider `O=C(O)CCc1ccc(-c2ccc3c(c2)N(Cc2cc(F)cc4c2OCOC4)C(=O)/C3=N\O)cc1` [Compound 335], for which the Ki was below 1000 nM. The same measure for `C=CCCCN1C(=O)/C(=N\O)c2cc(Br)ccc21` [Compound 160]: at least 1000 nM; for `Cc1ccc(-c2ccc3c(c2)N(Cc2cc(F)cc4c2OCOC4)C(=O)/C3=N\O)cc1C` [Compound 331]: below 1000 nM; for `Cc1cc(C)c2c(c1)/C(=N/O)C(=O)N2Cc1ccccc1C#N` [Compound 89]: at least 1000 nM.

For `Cc1cc(Cl)cc2c1N(Cc1ccc(S(C)(=O)=O)cc1)C(=O)/C2=N\O` [Compound 101], the Ki is at least 1000 nM. In the case of `O=C(O)c1cccc2c1/C(=N/O)C(=O)N2Cc1cc(F)cc2c1OCOC2` [Compound 245], the inhibitory constant (Ki) was at least 1000 nM.
